Assays:
[1] = test system: MDA468 (human breast cancer cell); experiment: Cell proliferation (MTS) assay, MDA468; type: cell-based; settings: three days treatment
Summary of the method: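 Cells plated at about 3000 per well in RPMI-1640/10% FBS were dosed with compound one day later. Viability was read by MTS conversion (absorbance 490 nm, 1–2 h) three days after treatment began. Effect is expressed as percent of vehicle-treated growth on the same plate.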

Human TOR = target: T1, Human TOR (Homo sapiens, UniProt P42345); experiment: Human TOR (mTOR) kinase assay, DELFIA format; type: biochemical
T1 construct: FLAG
Summary of the method: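 Purified FLAG-TOR (800 ng/mL) phosphorylates His6-S6K ([…]) with […] ATP in Hepes pH 7.4 buffer containing MnCl2, 2 h at room temperature. Phospho-Thr389 S6K detected by DELFIA using Europium-labelled anti-P(T389)-p70S6K antibody; enzyme inhibition calculated from signal.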

[2] = test system: panel of seven colon tumor lines; experiment: Tumor cell growth assay, combination with MEK inhibitor, colon panel; type: cell-based, human
Method: (§1) Human tumor cell are all obtained from ATCC, and are cultured using standard cell culture methods. Cells are plated in 96-well culture plates at 1000 to 3000 cells per well. One day following plating, cells are treated with various doses of PI3K inhibitor Compound 4 or Compound 5 alone or with a low constant dose of MEK inhibitor 2-(2-chloro-4-iodoanilino)-N-(cycloprorylmethoxy-3,4-difluobenzamide) (1 μg/ml) or UO126 (5 μg/ml). UO126 is also known as 1,4-diamino-2,3-dicyano-1,4-bis[2-aminophenylthio]butadiene. In some experiments, cells are treated alone with various doses of the MEK inhibitor (2-(2-chloro-4-iodoanilino)-N-(cycloprorylmethoxy-3,4-difluobenzamide)), or HER2/neu inhibitor HKI-272, or mTOR inhibitor CCI-779, or with a low constant dose of Compound 4 (0.1 μg/ml). […] Three days after drug treatment, viable cell densities are determined by metabolic conversion (by viable cells) of the dye MTS, an established cell proliferation assay. […] The MTS assay results are read in a 96-well plate reader by measuring absorbance at 490 nm. The effect of each treatment is calculated as percent of control growth relative to the vehicle DMSO-treated cells grown in the same culture plate. […]

[3] = test system: DU145 prostrate tumor cells; experiment: Tumor cell growth assay, combination with MEK inhibitor, DU145; type: cell-based, human
Method: as §1

For COC[C@H]1OC(=O)/C(=C/N(CCO)C(C)(C)C)C2=C(O)C(=O)C3=C([C@H](OC(C)=O)C[C@@]4(C)C3CC[C@@H]4O)[C@]21C (stereo partly drawn) [Compound 4, (1E,4S,4aR,5R,6aS,7S)-1-{[tert-butyl(2-hydroxyethyl)amino]methylene}-7,11-dihydroxy-4-(methoxymethyl)-4a,6a-dimethyl-2,10-dioxo-1,2,4,4a,5,6,6a,7,8,9,9a,10-dodecahydroindeno[4,5-h]isochromen-5-yl acetate], the “MDA468 IC50” value ([1]; Table 1) was 0.3 µg/mL, the “MDA468 IC50” value ([1]; Table 2) was 0.51 µg/mL and the “TOR IC50” value (Human TOR; Table 1) was 16 µg/mL. For the same molecule, the “TOR IC50” value (Human TOR; Table 2) was >10 µg/mL, the “growth inhibition in combination with MEK inhibitor 2-(2-chloro-4-iodoanilino)-N-(cycloprorylmethoxy-3,4-difluobenzamide)” value [2] was “synergistic growth inhibition” and the “growth inhibition in combination with MEK inhibitor 2-(2-chloro-4-iodoanilino)-N-(cycloprorylmethoxy-3,4-difluobenzamide)” value [3] was “synergistic growth inhibition”.
